Data published in ChEMBL document CHEMBL3046832, “Synthesis of some sulfonamides, disubstituted sulfonylureas or thioureas and some structurally related variants. A class of promising antitumor agents” (2007).

Columns and labels:
Assay type in all cases: functional
M14 = test: Cytotoxicity against Homo sapiens (human) M14 cells after 48 hr by SRB assay; details: M14, 48 h
LOX IMVI = test: Cytotoxicity against Homo sapiens (human) LOXIMVI cells after 48 hr by SRB assay
U-251 = test: Cytotoxicity against Homo sapiens (human) U251 cells after 48 hr by SRB assay; details: U-251, 48 h
SNB-75 = test: Cytotoxicity against Homo sapiens (human) SNB75 cells after 48 hr by SRB assay; details: SNB-75, 48 h
Hs-578T = test: Cytotoxicity against Homo sapiens (human) Hs578T cells after 48 hr by SRB assay
DU-145 = test: Cytotoxicity against Homo sapiens (human) DU145 cells after 48 hr by SRB assay; details: DU-145, 48 h
UO-31 = test: Cytotoxicity against Homo sapiens (human) UO31 cells after 48 hr by SRB assay; details: UO-31, 48 h
RXF 393 = test: Cytotoxicity against Homo sapiens (human) RXF393 cells after 48 hr by SRB assay; details: RXF 393, 48 h
CAKI-1 = test: Cytotoxicity against Homo sapiens (human) Caki1 cells after 48 hr by SRB assay; details: CAKI-1, 48 h
ACHN = test: Cytotoxicity against Homo sapiens (human) ACHN cells after 48 hr by SRB assay
786-0 = test: Cytotoxicity against Homo sapiens (human) 786-0 cells after 48 hr by SRB assay; details: 786-0, 48 h
[1] = Cytotoxicity against Homo sapiens (human) NCI-ADR-RES cells after 48 hr by SRB assay
SK-OV-3 = test: Cytotoxicity against Homo sapiens (human) SKOV3 cells after 48 hr by SRB assay; details: SK-OV-3, 48 h
IGROV-1 = test: Cytotoxicity against Homo sapiens (human) IGROV1 cells after 48 hr by SRB assay; details: IGROV-1, 48 h
OVCAR-3 = test: Cytotoxicity against Homo sapiens (human) OVCAR3 cells after 48 hr by SRB assay; details: OVCAR-3, 48 h
UACC-62 = test: Cytotoxicity against Homo sapiens (human) UACC62 cells after 48 hr by SRB assay; details: UACC-62, 48 h
SK-MEL-5 = test: Cytotoxicity against Homo sapiens (human) SK-MEL-5 cells after 48 hr by SRB assay; details: SK-MEL-5, 48 h
SK-MEL-28 = test: Cytotoxicity against Homo sapiens (human) SK-MEL-28 cells after 48 hr by SRB assay; details: SK-MEL-28, 48 h
[2] = Cytotoxicity against Homo sapiens (human) breast cancer cells after 48 hr by SRB assay; details: Cancer cell lines
[3] = Cytotoxicity against Homo sapiens (human) prostate cancer cells after 48 hr by SRB assay; details: Cancer cell lines
[4] = Cytotoxicity against Homo sapiens (human) renal cancer cells after 48 hr by SRB assay; details: Cancer cell lines
[5] = Cytotoxicity against Homo sapiens (human) ovarian cancer cells after 48 hr by SRB assay; details: Cancer cell lines
[6] = Cytotoxicity against Homo sapiens (human) CNS cancer cells after 48 hr by SRB assay; details: Cancer cell lines
[7] = Cytotoxicity against Homo sapiens (human) colon cancer cells after 48 hr by SRB assay; details: Cancer cell lines
[8] = Cytotoxicity against Homo sapiens (human) non-small cell lung cancer cells after 48 hr by SRB assay; details: Cancer cell lines
NCI-H460 [9] = test: Cytotoxicity against Homo sapiens (human) NCI-H460 cells assessed as cellular growth after 48 hr by Alamar blue assay; design: concentration or dose not given beside the values
[10] = Cytotoxicity against Homo sapiens (human) leukemia cells after 48 hr by SRB assay; details: Leukemia cell
SF-268 [11] = test: Cytotoxicity against Homo sapiens (human) SF268 cells assessed as cellular growth after 48 hr by Alamar blue assay; design: concentration or dose not given beside the values
BT-549 = test: Cytotoxicity against Homo sapiens (human) BT549 cells after 48 hr by SRB assay; details: BT-549, 48 h
T47D = test: Cytotoxicity against Homo sapiens (human) T47D cells after 48 hr by SRB assay
SNB-19 = test: Cytotoxicity against Homo sapiens (human) SNB19 cells after 48 hr by SRB assay; details: SNB-19, 48 h
SW-620 = test: Cytotoxicity against Homo sapiens (human) SW620 cells after 48 hr by SRB assay; details: SW-620, 48 h
SF-268 [12] = test: Cytotoxicity against Homo sapiens (human) SF268 cells after 48 hr by SRB assay; details: SF-268, 48 h
KM12 = test: Cytotoxicity against Homo sapiens (human) KM12 cells after 48 hr by SRB assay; details: KM12, 48 h
HCT-15 = test: Cytotoxicity against Homo sapiens (human) HCT15 cells after 48 hr by SRB assay; details: HCT-15, 48 h
HT-29 = test: Cytotoxicity against Homo sapiens (human) HT-29 cells after 48 hr by SRB assay; details: HT-29, 48 h
HCC 2998 = test: Cytotoxicity against Homo sapiens (human) HCC2998 cells after 48 hr by SRB assay; details: HCC 2998, 48 h
NCI-H522 = test: Cytotoxicity against Homo sapiens (human) NCI-H522 cells after 48 hr by SRB assay; details: NCI-H522, 48 h
NCI-H23 = test: Cytotoxicity against Homo sapiens (human) NCI-H23 cells after 48 hr by SRB assay; details: NCI-H23, 48 h
[13] = Cytotoxicity against Homo sapiens (human) NCI-H322 cells after 48 hr by SRB assay; details: NCI-H322, 48 h
NCI-H460 [14] = test: Cytotoxicity against Homo sapiens (human) NCI-H460 cells after 48 hr by SRB assay; details: NCI-H460, 48 h
HOP-92 = test: Cytotoxicity against Homo sapiens (human) HOP92 cells after 48 hr by SRB assay; details: HOP-92, 48 h
EKVX = test: Cytotoxicity against Homo sapiens (human) EKVX cells after 48 hr by SRB assay
RPMI-8226 = test: Cytotoxicity against Homo sapiens (human) RPMI8226 cells after 48 hr by SRB assay; details: RPMI-8226, 48 h
A549 = test: Cytotoxicity against Homo sapiens (human) A549 cells after 48 hr by SRB assay; details: A549, 48 h
MOLT-4 = test: Cytotoxicity against Homo sapiens (human) MOLT4 cells after 48 hr by SRB assay; details: MOLT-4, 48 h
CCRF-CEM = test: Cytotoxicity against Homo sapiens (human) CCRF-CEM cells after 48 hr by SRB assay

`O=S(=O)(NC(=S)Nc1ccccc1)c1ccc(N2N=C3c4ccccc4CC3C2c2cccs2)cc1` (stereo not given) gave a GI50 (M14) of 22.7 µM, a GI50 (LOX IMVI) of 24.4 µM and a GI50 (U-251) of 26.2 µM. It also gave a GI50 (SNB-75) of 71.9 µM, a GI50 (Hs-578T) of 20.9 µM and a GI50 (DU-145) of 17.8 µM. For the same molecule, the GI50 (UO-31) was 51.2 µM, the GI50 (RXF 393) was 78.1 µM and the GI50 (CAKI-1) was 18.5 µM. For the same molecule, the GI50 (ACHN) was 26.4 µM, the GI50 (786-0) was 19.7 µM and the GI50 [1] was 19.3 µM. For the same molecule, the GI50 (SK-OV-3) was 49.5 µM, the GI50 (IGROV-1) was 65.3 µM and the GI50 (OVCAR-3) was 17.2 µM. For the same molecule, the GI50 (UACC-62) was 18.5 µM, the GI50 (SK-MEL-5) was 20.8 µM and the GI50 (SK-MEL-28) was 53.8 µM. For the same molecule, the GI50 [2] was 30.8 µM, the TGI [2] was 57.3 µM and the GI50 [3] was 20.3 µM. It also gave a TGI [3] of 47.9 µM, a GI50 [4] of 32.5 µM and a TGI [4] of 47 µM. The GI50 [5] was 43 µM, the TGI [5] was 81.3 µM and the GI50 [6] was 34 µM. It also gave a TGI [6] of 77.5 µM, a GI50 [7] of 25.9 µM and a TGI [7] of 75.9 µM. The GI50 [8] was 30.5 µM, the TGI [8] was 48.4 µM and the Activity (NCI-H460 [9]) was “<=32%”. The GI50 [10] was 27.4 µM, the TGI [10] was 85 µM and the Activity (SF-268 [11]) was “<=32%”. It also gave a GI50 (BT-549) of 24.6 µM, a GI50 (T47D) greater than 100 µM and a GI50 (SNB-19) of 33.8 µM. It also gave a GI50 (SW-620) of 30 µM, a GI50 (SF-268 [12]) of 30.7 µM and a GI50 (KM12) of 21.5 µM. The GI50 (HCT-15) was 22.6 µM, the GI50 (HT-29) was 36.2 µM and the GI50 (HCC 2998) was 13.9 µM. For the same molecule, the GI50 (NCI-H522) was 32.8 µM, the GI50 (NCI-H23) was 17.6 µM and the GI50 [13] was 56.6 µM. The GI50 (NCI-H460 [14]) was 24.6 µM, the GI50 (HOP-92) was 24.9 µM and the GI50 (EKVX) was 19.5 µM. It also gave a GI50 (RPMI-8226) of 30.3 µM, a GI50 (A549) of 15.7 µM and a GI50 (MOLT-4) of 17.5 µM. For the same molecule, the GI50 (CCRF-CEM) was 30.5 µM.

With `O=C1CS/C(=N\S(=O)(=O)c2ccc(N3N=C4c5ccccc5CC4C3c3cccs3)cc2)N1C(=O)c1ccccc1` (stereo not given) the GI50 (M14) was 44.7 µM, the GI50 (LOX IMVI) was 22.7 µM and the GI50 (U-251) was 36.3 µM. The GI50 (SNB-75) was greater than 100 µM, the GI50 (Hs-578T) was 25.3 µM and the GI50 (DU-145) was 38.2 µM. For the same molecule, the GI50 (UO-31) was greater than 100 µM, the GI50 (RXF 393) was 63.9 µM and the GI50 (CAKI-1) was 39 µM. It also gave a GI50 (ACHN) of 23.6 µM, a GI50 (786-0) of 48.8 µM and a GI50 [1] greater than 100 µM. The GI50 (SK-OV-3) was greater than 100 µM, the GI50 (IGROV-1) was 28.3 µM and the GI50 (OVCAR-3) was 59.2 µM. It also gave a GI50 (UACC-62) of 23.2 µM, a GI50 (SK-MEL-5) of 22.7 µM and a GI50 (SK-MEL-28) greater than 100 µM. For the same molecule, the GI50 [2] was 63 µM, the TGI [2] was greater than 100 µM and the GI50 [3] was 38.1 µM. It also gave a TGI [3] greater than 100 µM, a GI50 [4] of 59.4 µM and a TGI [4] of 99.1 µM. It also gave a GI50 [5] of 60.9 µM, a TGI [5] greater than 100 µM and a GI50 [6] of 64.9 µM. It also gave a TGI [6] greater than 100 µM, a GI50 [7] of 40.4 µM and a TGI [7] of 79.8 µM. The GI50 [8] was 49.3 µM, the TGI [8] was 85.9 µM and the Activity (NCI-H460 [9]) was “<=32%”. The GI50 [10] was 31.2 µM, the TGI [10] was 84.5 µM and the Activity (SF-268 [11]) was “<=32%”. It also gave a GI50 (BT-549) of 33.5 µM, a GI50 (T47D) greater than 100 µM and a GI50 (SNB-19) of 77 µM. It also gave a GI50 (SW-620) of 38.5 µM, a GI50 (SF-268 [12]) greater than 100 µM and a GI50 (KM12) of 21.4 µM. For the same molecule, the GI50 (HCT-15) was 56.3 µM, the GI50 (HT-29) was 76 µM and the GI50 (HCC 2998) was 17.6 µM. The GI50 (NCI-H522) was 60.1 µM, the GI50 (NCI-H23) was 25.1 µM and the GI50 [13] was 16.6 µM. For the same molecule, the GI50 (NCI-H460 [14]) was greater than 100 µM, the GI50 (HOP-92) was 37.3 µM and the GI50 (EKVX) was 42.4 µM. For the same molecule, the GI50 (RPMI-8226) was 34 µM, the GI50 (A549) was 70.5 µM and the GI50 (MOLT-4) was 22.2 µM. For the same molecule, the GI50 (CCRF-CEM) was 37.5 µM.
